# From patent publication US20020103127A1, “Inhibitors of proteasomal activity for stimulating hair growth” (priority 1998, published 2002)
# Where a SMILES comes first, the peptide text is derived from it. [ ]: non-standard residue; d: D form. The star is where a group is joined. Nva = CCC[C@H](N)C(=O)O; Cbz = O=C(OCc1ccccc1)*; OtBu = CC(C)(C)O*
# Legend:
# hair follicles [1] = assay: Modified in vivo calvarial assay: number of hair follicles after injection over the calvaria; set-up: species or system Swiss ICR mice; conditions: for number of hair follicles: administered in the same way as PSI (injection over the calvaria)
# Method: Male ICR Swiss white mice, aged 4-6 weeks and weighing 13-26 gm, are employed, using 4-5 mice per group. The calvarial bone growth assay is performed as described in PCT application WO95/242 11, incorporated by reference. Briefly, the test compound or appropriate control vehicle is injected into the subcutaneous tissue over the right calvaria of normal mice. Typically, the control vehicle is the vehicle in which the compound was solubilized, and is PBS containing 5% DMSO or is PBS containing Tween (2 μl/10 ml). The animals are sacrificed on day 14 and bone growth measured by histomorphometry. Bone samples for quantitation are cleaned from adjacent tissues and fixed in 10% buffered formalin for 24-48 hours, decalcified in 14% EDTA for 1-3 weeks, processed through graded alcohols; and embedded in paraffin wax. Three to five μm sections of the calvaria are prepared, and representative sections are selected for histomorphometric assessment of the effects on bone formation and bone resorption. Sections are measured by using a camera lucida attachment to trace directly the microscopic image onto a digitizing plate. Bone changes are measured on sections cut 200 μm apart, over 4 adjacent 1×1 mm fields on both the injected and noninjected sides of the calvaria. New bone is identified by its characteristic woven structure, and osteoclasts and osteoblasts are identified by their distinctive morphology. Histomorphometry software (OsteoMeasure, Osteometrix, Inc., Atlanta) is used to process digitizer input to determine cell counts and measure areas or perimeters.
# (§1) The assay described above to assess the effect of compounds on calvarial bone growth can also be used to assess the ability of compounds to stimulate hair growth. The test compound or appropriate control vehicle is applied to the upper and lower back of male ICR Swiss white mice either topically or by subcutaneous injection. The vehicle is selected as appropriate for the compound to be tested and for the route of administration. Optionally, the hair in the test area may be removed prior to administration. After a suitable interval, typically 7 days, the mice are anesthetized and a biopsy of the dorsal treatment area is taken using a 6 mm dermal punch. The specimens are fixed in 10% buffered formalin and imbedded in paraffin wax, and sectioned and stained to observe hair follicles. In addition, photography can be used to observe and record hair growth; typically such growth is observed after 14-18 days. After a suitable interval, typically 21 days, the animals may be euthanized and the hair analyzed for fiber analysis and the tissue from the treatment area analyzed for quantitation of hair follicles.
# The in vivo bone calvarial growth assay of Example 3 was modified to observe the number of hair follicles in treated mice. […]
# hair follicles [2] = assay: Stimulation of hair growth: subcutaneous injection into scalp and dorsal region after wax hair stripping; assay type: in vivo, Male Swiss ICR mice; conditions: 1 mg/kg/day s.c. three times a day for five days
# From the text: as §1
# Male Swiss ICR mice were first treated to remove hair from the scalp and dorsal regions as follows. Paraffin wax was liquefied by heating to 55° C. and the liquefied wax then applied by brush to the scalp and/or back (under anesthesia). The wax was allowed to solidify and then removed. The day following hair stripping, PSI (1 mg/kg/day) was injected subcutaneously three times a day for five days into the scalp and dorsal region.
# The mice were sacrificed on day 21 and histology was performed on the dermis of the scalp and of the dorsal region. […] Upon closer examination, it was observed that mice that had received only vehicle had quiescent hair follicles.
# hair follicles [3] = assay: Topical administration of PSI solution, hair growth; assay type: in vivo, mice
# Method: PSI was prepared as a topical formulation, where the vehicle was 50% propylene glycol, 30% ethanol, 20% deionized water, at 0.1% concentration of PSI. The solution was applied 3 times a day for 5 days. The mice in a treated group were observed as compared to controls similarly treated with vehicle alone.
# When the protocol above was repeated using a 0.5% solution of PSI in groups containing 5 mice each, the number of hairs per 0.8 mm^2 was 60 in the treated mice versus about 10 in the control group. The percentage of follicle area in a region of about 0.8 mm^2 was about 30% as an average in the treated group as compared to 15% as an average in the control group.
# hair follicles [4] = assay: Topical dose response of PSI (dose requirements); assay type: in vivo, mice
# Method: In order to determine the minimal effective dosage of PSI, when used topically, a dose response curve for PSI was prepared. All experiments were preformed according to current good laboratory practice regulations (21CFR58). The mice were divided into 7 groups, 10 mice each, wherein one group was control treated only with vehicle and groups 1-6 with a series of increasing concentrations of PSI in a vehicle comprising 50% propylene glycol, 30% ethanol, 20% deionized water. The concentrations were 0.006%, 0.012%, 0.025%, 0.05%, 0.11% and 0.5%.
# The mice were anesthetized (50 μl Mouse Cocktail containing 3 ml ketamine, 2 ml small animal rompum, 5 ml NaCl), identified by ear punch code, weighed and the hair on the dorsal side removed by waxing as described in Example 6. After waxing, the animals were photographed. On the following day (day 1), 100 μl of PSI at the above concentrations in vehicle was brushed onto the area of removed hair. […]
# On Day 7 mice were anesthetized and a biopsy of the dorsal treatment area taken using a 6 mm dermal punch; the specimens were fixed in 10% buffered formalin and embedded in paraffin wax. Sections were cut using a standard microtome.
# Mice were monitored daily for signs of hair growth, and any hair growth was recorded by photography. On day 21 animals were euthanized (75 mg/kg body weight phenobarbital, IP injection), 2 cm hair samples were taken for optical based fiber analysis, and the remaining dorsal treatment area was fixed in 10% buffered formalin for further histological analysis. Analysis included quantification of hair thickness and quantification of mature hair follicles. Results were expressed as the mean =+/− the standard error of the mean. Data were analyzed by repeated measures of analysis of variance followed by the Tukey-Kramer post test P values of <0.05 were considered significant.
# calvarial bone = assay: in vitro calvarial assay; assay type: cell-based
# [5] = compared with proteasome inhibitors such as MG-132
# [6] = topical 0.5% solution of PSI, 3 times a day for 5 days, groups of 5 mice
smiles,measurement,setting,value
"CCC[C@@H](C=O)NC(=O)[C@H](CC(C)C)NC(=O)[C@H](CC(C)C)NC(=O)OCc1ccccc1 [MG115, N-carbobenzoyl-Leu-Leu-Nva-CHO] (Cbz-Leu-Leu-[Nva]-aldehyde)",number of hair follicles,hair follicles [1]; 10 mg/kg,stimulated an increase in the number of hair follicles
"CC(C)C[C@@H](C=O)NC(=O)[C@H](CC(C)C)NC(=O)[C@H](CC(C)C)NC(=O)OCc1ccccc1 [MG132, N-carbobenzoyl-Leu-Leu-Leu-CHO] (Cbz-Leu-Leu-Leu-aldehyde)",number of hair follicles,hair follicles [1]; 10 mg/kg,stimulated an increase in the number of hair follicles
"CC[C@H](C)[C@H](NC(=O)OCc1ccccc1)C(=O)N[C@@H](CCC(=O)OC(C)(C)C)C(=O)N[C@@H](C)C(=O)N[C@H](C=O)CC(C)C [PSI, N-carbobenzoyl-Ile-Glu-(OtBu)-Ala-Leu-CHO] (Cbz-IE(OtBu)AL-aldehyde)",hair growth rate versus control group,hair follicles [2]; by day 18,hair growth rate greater than that of the mice in the control group
same,number of hair follicles (dermal punch biopsy histology) versus control mice,hair follicles [2]; day 7,large increase in the number of hair follicles
same,effect on quiescent hair follicles (histology),hair follicles [2]; day 21,stimulated to differentiate into mature hair follicles and to migrate to the lower region of the dermis
same,mature hair follicles in dermis of scalp and dorsal region (histology),hair follicles [2]; day 21,mature hair follicles in numbers much greater than in controls had migrated to the lower region of the dermis
same,hair growth relative to vehicle controls,"hair follicles [3]; topical 0.1% PSI in 50% propylene glycol, 30% ethanol, 20% water, 3 times a day for 5 days, day 16",stimulation of hair growth relative to the controls
same,number of hairs per 0.8 mm^2,hair follicles [3]; [6],60 per 0.8 mm^2
same,percentage of follicle area in a region of about 0.8 mm^2 (average),hair follicles [3]; [6],about 30%
same,thickness of hair and hair shaft,hair follicles [3]; topical PSI,able to thicken both the hair and the hair shaft
same,hair count,"hair follicles [3]; topical PSI, follicle area greater than 0.01 mm^2",increases hair count
same,efficacy on hair growth (additional experiments),hair follicles [4]; 0.1% applied topically 3 times a day for 5 days,also effective
same,gross observation of hair growth,hair follicles [4]; mice receiving an effective topical dose,"an enhanced rate of hair growth, a thickening of hair diameter, increase in sheath diameter, and differentiation of quiescent hair follicles into more mature forms"
same,minimal effective dose (topical concentration),"hair follicles [4]; topical, applied 1 time a day for 4 days, 100 μl in 50% propylene glycol, 30% ethanol, 20% water",0.5%
same,number of hair follicles (histology of the calvaria) versus control mice,"hair follicles [1]; 5mg/kg/day injected three times a day for 5 days over the calvaria, sacrificed sixteen days later",strikingly large increase in the number of hair follicles
"CC(=O)N[C@@H](CSC(=O)[C@]1([C@@H](O)C(C)C)NC(=O)[C@H](C)[C@@H]1O)C(=O)O [lactacysin, lactacystin]",number of hair follicles,hair follicles [1]; dose not given,stimulated an increase in the number of hair follicles
CC(=O)CCCCn1c(=O)c2c(ncn2C)n(C)c1=O [pentoxyfilline],activity in the in vitro calvarial assay,calvarial bone,active
C=C(C)[C@]12C[C@@H](C)[C@@]34O[C@](Cc5ccccc5)(O[C@@H]1[C@@H]3C=C(COC(=O)Cc1ccc(O)c(OC)c1)C[C@]1(O)C(=O)C(C)=C[C@@H]41)O2 [resiniferatoxin],activity in the ABA assay,[5],less active
